Test results reported in PubChem BioAssay AID330 (DTP/NCI, 2004).
Values joined by “and” are separate entries in the source; they are usually repeats but may differ in a detail not shown here. Equal entries are not always repeated. Inconclusive results and toxic doses are left out. The calls were made as follows: active = survival T/C of 150% or more; inactive = T/C below 125% in these data.

Tested on: P388 leukemia ip, CD2F1 mice, survival T/C
Experiment: NCI In Vivo Anticancer Drug Screen. Data for tumor model P388 Leukemia (intraperitoneal) in CD2F1 (CDF1) mice
Conditions: endpoint: median survival time, higher = longer survival
Summary of the method: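 Mice carrying the transplanted tumor received test compound or vehicle. Survival was recorded in each group, and the value is the treated-group measurement divided by that of the vehicle-treated control group.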

[1] = dose: 50.0 mg/kg/injection, schedule: Q01DX005 (ip), vehicle: saline with Tween-80
[2] = dose: 100.0 mg/kg/injection, schedule: Q01DX005 (ip), vehicle: saline with Tween-80
[3] = dose: 200.0 mg/kg/injection, schedule: Q01DX005 (ip), vehicle: saline with Tween-80
[4] = dose: 60.0 mg/kg/injection, schedule: Q01DX005 (ip), vehicle: saline with Tween-80
[5] = dose: 120.0 mg/kg/injection, schedule: Q01DX005 (ip), vehicle: saline with Tween-80
[6] = dose: 240.0 mg/kg/injection, schedule: Q01DX005 (ip), vehicle: saline with Tween-80
[7] = dose: 50.0 mg/kg/injection, schedule: Q01DX005 (ip), vehicle: Klucel (hydroxypropylcellulose) (HPC)
[8] = dose: 100.0 mg/kg/injection, schedule: Q01DX005 (ip), vehicle: Klucel (hydroxypropylcellulose) (HPC)
[9] = dose: 50.0 mg/kg/injection, schedule: Q01DX009 (ip), vehicle: saline
[10] = dose: 100.0 mg/kg/injection, schedule: Q01DX009 (ip), vehicle: saline
[11] = dose: 200.0 mg/kg/injection, schedule: Q01DX009 (ip), vehicle: saline
[12] = dose: 100.0 mg/kg/injection, schedule: Q04DX003 (ip), vehicle: saline with Tween-80
[13] = dose: 200.0 mg/kg/injection, schedule: Q04DX003 (ip), vehicle: saline with Tween-80
[14] = dose: 200.0 mg/kg/injection, schedule: Q01DX005 (ip), vehicle: Klucel (hydroxypropylcellulose) (HPC)
[15] = dose: 50.0 mg/kg/injection, schedule: Q01DX009 (ip), vehicle: saline with Tween-80
[16] = dose: 100.0 mg/kg/injection, schedule: Q01DX009 (ip), vehicle: saline with Tween-80
[17] = dose: 200.0 mg/kg/injection, schedule: Q01DX009 (ip), vehicle: saline with Tween-80

Measured: T/C

CN(C)C1CC(N2c3ccccc3Sc3ccc(Cl)cc32)C1 (stereo unspecified)
inactive: dose: 50.0 mg/kg/injection, schedule: Q04DX003 (ip), vehicle: Klucel (hydroxypropylcellulose) (HPC) 107 % of control | dose: 100.0 mg/kg/injection, schedule: Q04DX003 (ip), vehicle: Klucel (hydroxypropylcellulose) (HPC) 104 % of control | dose: 200.0 mg/kg/injection, schedule: Q04DX003 (ip), vehicle: Klucel (hydroxypropylcellulose) (HPC) 107 % of control

CCCCCCC(=O)N1SC(NC(=O)OC)=Nc2ccccc21
inactive: dose: 50.0 mg/kg/injection, schedule: Q01DX005 (ip), vehicle: acetone 108 % of control | dose: 100.0 mg/kg/injection, schedule: Q01DX005 (ip), vehicle: acetone 102 % of control | dose: 200.0 mg/kg/injection, schedule: Q01DX005 (ip), vehicle: acetone 102 % of control

C[C@@H]1C[C@@H]2c3cccc4c3c(cn4CO)C[C@H]2N(C)C1
inactive: [1] 100 % of control | [2] 100 % of control | [3] 107 % of control

O=C(NCc1cccnc1)Nc1cccc2c(NC(=O)NCc3cccnc3)cccc12
inactive: [4] 91 % of control | [5] 86 % of control | [6] 86 % of control

N#CC1CCCC2OCC(c3ccccc3)N12 (stereo unspecified)
inactive: dose: 60.0 mg/kg/injection, schedule: Q01DX005 (ip), vehicle: Klucel (hydroxypropylcellulose) (HPC) 119 % of control | dose: 120.0 mg/kg/injection, schedule: Q01DX005 (ip), vehicle: Klucel (hydroxypropylcellulose) (HPC) 119 % of control | dose: 240.0 mg/kg/injection, schedule: Q01DX005 (ip), vehicle: Klucel (hydroxypropylcellulose) (HPC) 117 % of control

O=C(O)Cc1cccc(S(=O)(=O)F)c1
inactive: [4] 104 % of control | [5] 100 % of control

CCOC(=O)Cc1ccc(-c2cn3c(n2)sc2ccccc23)cc1
inactive: dose: 50.0 mg/kg/injection, schedule: Q01DX009 (ip), vehicle: Klucel (hydroxypropylcellulose) (HPC) 112 % of control | dose: 100.0 mg/kg/injection, schedule: Q01DX009 (ip), vehicle: Klucel (hydroxypropylcellulose) (HPC) 103 % of control | dose: 200.0 mg/kg/injection, schedule: Q01DX009 (ip), vehicle: Klucel (hydroxypropylcellulose) (HPC) 100 % of control

Cc1ccc2c(c1)C1(SC(C)C(=O)N1c1ccc(Cl)cc1)C(=O)N2 (stereo unspecified)
inactive: dose: 30.0 mg/kg/injection, schedule: Q01DX005 (ip), vehicle: saline with Tween-80 103 % of control | [4] 114 % of control and 121 % of control | [5] 119 % of control

CC(C)CCC[C@@H](C)[C@H]1CC[C@H]2[C@@H]3CC[C@H]4C[C@@H](N)CC[C@]4(C)[C@H]3CC[C@]12C
inactive: dose: 6.25 mg/kg/injection, schedule: Q01DX005 (ip), vehicle: Klucel (hydroxypropylcellulose) (HPC) 98 % of control | dose: 12.5 mg/kg/injection, schedule: Q01DX005 (ip), vehicle: Klucel (hydroxypropylcellulose) (HPC) 97 % of control | dose: 25.0 mg/kg/injection, schedule: Q01DX005 (ip), vehicle: Klucel (hydroxypropylcellulose) (HPC) 95 % of control | [7] 112 % of control | [8] 109 % of control

N#CC12c3ccccc3C(c3ccccc31)C1C(=O)C=CC(=O)C12 (stereo unspecified)
inactive: dose: 12.5 mg/kg/injection, schedule: Q01DX009 (ip), vehicle: saline 111 % of control | dose: 25.0 mg/kg/injection, schedule: Q01DX009 (ip), vehicle: saline 106 % of control | [9] 92 % of control and 96 % of control

CCC1C(=O)CC(c2ccc(OC)cc2)OC1c1ccc(OC)cc1 (stereo unspecified)
inactive: [9] 88 % of control | [10] 96 % of control | [11] 99 % of control

CCC(O)(C(=O)O)c1ccccc1 (stereo unspecified)
inactive: dose: 25.0 mg/kg/injection, schedule: Q04DX003 (ip), vehicle: saline 105 % of control | dose: 50.0 mg/kg/injection, schedule: Q04DX003 (ip), vehicle: saline 97 % of control | dose: 100.0 mg/kg/injection, schedule: Q04DX003 (ip), vehicle: saline 94 % of control | dose: 200.0 mg/kg/injection, schedule: Q04DX003 (ip), vehicle: saline 100 % of control

O=c1[nH]cnc2nc(N3CCN(c4ccccc4)CC3)sc12
inactive: [4] 87 % of control | [5] 87 % of control | [6] 87 % of control

CC(C)CCN(CCC(C)C)CC(O)c1cc2c(c3ccccc13)CCCC2 (stereo unspecified)
inactive: dose: 12.5 mg/kg/injection, schedule: Q01DX005 (ip), vehicle: saline with Tween-80 96 % of control | dose: 25.0 mg/kg/injection, schedule: Q01DX005 (ip), vehicle: saline with Tween-80 93 % of control | [1] 103 % of control and 93 % of control | [2] 113 % of control | [3] 108 % of control

C=C1CCC2C(c3c(C)c(O)c4c(c31)C(=O)C(C)C4)C2(C)C (stereo unspecified)
inactive: dose: 3.0 mg/kg/injection, schedule: Q01DX009 (ip), vehicle: Klucel (hydroxypropylcellulose) (HPC) 110 % of control | dose: 6.0 mg/kg/injection, schedule: Q01DX009 (ip), vehicle: Klucel (hydroxypropylcellulose) (HPC) 108 % of control | dose: 12.0 mg/kg/injection, schedule: Q01DX009 (ip), vehicle: Klucel (hydroxypropylcellulose) (HPC) 103 % of control | dose: 24.0 mg/kg/injection, schedule: Q01DX009 (ip), vehicle: Klucel (hydroxypropylcellulose) (HPC) 108 % of control

Cc1ccc(NC(=O)Oc2cc(C)c(Cl)cc2Br)cc1Cl
inactive: [9] 100 % of control | [10] 107 % of control | [11] 116 % of control

C=C(C)C(=O)NCC(=O)NCC(=O)NCC(=O)Oc1ccc([N+](=O)[O-])cc1
inactive: dose: 50.0 mg/kg/injection, schedule: Q04DX003 (ip), vehicle: saline with Tween-80 100 % of control | [12] 90 % of control | [13] 99 % of control

CC1(O)/C=C\C=C(\CO)C2CC(C)(C)C2(O)CC1 (stereo unspecified)
inactive: dose: 6625.0 micrograms/kg/injection, schedule: Q01DX005 (ip), vehicle: Klucel (hydroxypropylcellulose) (HPC) 100 % of control | dose: 13250.0 micrograms/kg/injection, schedule: Q01DX005 (ip), vehicle: Klucel (hydroxypropylcellulose) (HPC) 98 % of control | dose: 26500.0 micrograms/kg/injection, schedule: Q01DX005 (ip), vehicle: Klucel (hydroxypropylcellulose) (HPC) 94 % of control | dose: 53000.0 micrograms/kg/injection, schedule: Q01DX005 (ip), vehicle: Klucel (hydroxypropylcellulose) (HPC) 87 % of control

Cc1cc(C)nc(NCCCCCCNc2nc(C)cc(C)n2)n1
inactive: [12] 101 % of control | [13] 90 % of control | dose: 400.0 mg/kg/injection, schedule: Q04DX003 (ip), vehicle: saline with Tween-80 92 % of control

Cc1c(N(C)c2ccccc2)c(=S)n(C)c(=S)n1C
inactive: [7] 89 % of control | [8] 100 % of control | [14] 90 % of control

Clc1ccc2sc(-c3ccccc3)nc2c1
inactive: [15] 106 % of control | [16] 103 % of control | [17] 100 % of control | dose: 400.0 mg/kg/injection, schedule: Q01DX009 (ip), vehicle: saline with Tween-80 100 % of control

CSC1=NN(C(C)=O)C(c2ccccn2)S1 (stereo unspecified)
inactive: [7] 100 % of control | [8] 100 % of control | [14] 101 % of control

C/C(=C\C(=O)c1ccccc1)Nc1ccc(Cl)cc1
inactive: dose: 25.0 mg/kg/injection, schedule: Q01DX009 (ip), vehicle: saline with Tween-80 108 % of control | [15] 92 % of control | [16] 89 % of control | [17] 99 % of control

CSC(=S)n1nc(-c2ccccc2)c(N=Nc2cccc(C)c2C)c1C
inactive: dose: 100.0 mg/kg/injection, schedule: Q04DX002 (ip), vehicle: saline with Tween-80 88 % of control | dose: 200.0 mg/kg/injection, schedule: Q04DX002 (ip), vehicle: saline with Tween-80 90 % of control | dose: 400.0 mg/kg/injection, schedule: Q04DX002 (ip), vehicle: saline with Tween-80 112 % of control

Cc1cc2nncn2c2nnnn12
inactive: dose: 6.25 mg/kg/injection, schedule: Q01DX005 (ip), vehicle: water 101 % of control | dose: 12.5 mg/kg/injection, schedule: Q01DX005 (ip), vehicle: water 102 % of control | dose: 25.0 mg/kg/injection, schedule: Q01DX005 (ip), vehicle: water 108 % of control | dose: 50.0 mg/kg/injection, schedule: Q01DX005 (ip), vehicle: water 108 % of control | dose: 100.0 mg/kg/injection, schedule: Q01DX005 (ip), vehicle: water 105 % of control | dose: 200.0 mg/kg/injection, schedule: Q01DX005 (ip), vehicle: water 101 % of control
